Laboratory results: patent publication US5767237A, “Peptide derivatives” (Teikoku Hormone Mfg. Co., Ltd., priority 1993, dated 1998)

System: mouse leukemia P388 cells
Test: Assay of antitumor activity: increase in life span of mice implanted with P388 leukemia
Assay type: in vivo
Details: CDF1 mice, P388 cells 10^6 cells/mouse i.p.; compound i.p. on first and fifth day after implantation; observed for 60 days; ILS from median survival days
Procedure: (1) Assay of antitumor activity
0.1 ml (10^6 cells/mouse) portions of mouse leukemia P388 cells were implanted intraperitoneally into 7-week-old CDF1 mice. […] From the results were calculated increases in life span (ILS, %) according to the following equation. In the following equation, T means median survival days of the chemical administration group, and C means median survival days of the control group. [formula]
Antitumor activity is shown as the relative ratio in the case where the ILS of dolastatin 10 is supposed to be 100.

dolastatin 10
Antitumor activity (relative ratio of ILS, ILS of dolastatin 10 supposed to be 100): 100
